According to patent EP4603105A1, “PHARMACEUTICAL COMPOSITION CONTAINING CYCLIC COMPOUND HAVING SELECTIVE KRAS INHIBITORY EFFECT AGAINST HRAS AND NRAS” (CHUGAI SEIYAKU KABUSHIKI KAISHA, priority 2022, dated 2024):
Where a SMILES comes first, the peptide text is derived from it. Bridges are numbered along the chain shown (N, C = ends). [ ]: non-standard residue; d: D form. The star is where a group is joined. hPhe(3-Cl-4-CF3) = N[C@@H](CCc1ccc(C(F)(F)F)c(Cl)c1)C(=O)O; NPrPhe(4-CF3) = CCCN[C@@H](Cc1ccc(C(F)(F)F)cc1)C(=O)O; NEtPhe(4-CF3) = CCN[C@@H](Cc1ccc(C(F)(F)F)cc1)C(=O)O; NMeGly(cPent) = CN[C@H](C(=O)O)C1CCCC1; Pro(4,4-F2) = O=C(O)[C@@H]1CC(F)(F)CN1; NMeF = CN[C@@H](Cc1ccccc1)C(=O)O; NMeD = CN[C@@H](CC(=O)O)C(=O)O; NMeL = CN[C@@H](CC(C)C)C(=O)O; Morpholide = C1CN(*)CCO1; Ac5c = NC1(C(=O)O)CCCC1; Aze = O=C(O)[C@@H]1CCN1; Ac4c = NC1(C(=O)O)CCC1; Aib = CC(C)(N)C(=O)O; NEtG = CCNCC(=O)O; Sar = CNCC(=O)O

Tests used:
[1] = system: human lung cancer strain NCI-H441; type: cell-based
How it was run: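 Readout: […] after the ATP-based reagent. Compound: serial dilutions in dimethyl sulfoxide.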

HRAS wild-type protein = HRAS wild-type protein (Homo sapiens, UniProt P01112); assay: Binding to HRAS by surface plasmon resonance (SPR), KD and KD ratio to KRAS
Sequence of HRAS wild-type protein (P01112 whole entry): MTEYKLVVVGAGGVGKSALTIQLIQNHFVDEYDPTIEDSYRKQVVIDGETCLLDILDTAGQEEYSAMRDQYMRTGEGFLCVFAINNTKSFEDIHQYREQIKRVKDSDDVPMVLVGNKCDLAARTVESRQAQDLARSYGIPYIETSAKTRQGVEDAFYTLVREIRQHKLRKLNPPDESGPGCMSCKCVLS
How it was run: (§1)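 GDP-bound biotin-Avi RAS captured at ~100–300 RU, 30°C, pH 7.4 HBS containing 10 µM GDP, 10 mM MgCl2, 1 mM DTT, 0.01% Tween 20 and 4% DMSO. KD by 1:1 fitting.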

[2] = target: GDP-bound KRAS wild-type protein (Homo sapiens, UniProt P01116); assay: Binding to KRAS by surface plasmon resonance (SPR), dissociation constant KD
Sequence of GDP-bound KRAS wild-type protein (P01116 1-188 isoform P01116-2): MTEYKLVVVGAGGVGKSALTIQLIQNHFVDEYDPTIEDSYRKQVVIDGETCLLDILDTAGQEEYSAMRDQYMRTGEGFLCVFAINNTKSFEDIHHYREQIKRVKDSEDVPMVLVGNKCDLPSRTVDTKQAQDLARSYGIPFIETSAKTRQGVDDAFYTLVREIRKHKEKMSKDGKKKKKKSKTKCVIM
How it was run: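 Captured GDP-RAS (~100–300 RU) was exposed to increasing compound concentrations, 75 s per step, in running buffer with 10 µM GDP, 10 mM MgCl2 and 4% DMSO at pH 7.4.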

[3] = target: GDP-bound NRAS wild-type protein (Homo sapiens, UniProt P01111); assay: Binding to NRAS by surface plasmon resonance (SPR), KD and KD ratio to KRAS
Sequence of GDP-bound NRAS wild-type protein (P01111 whole entry): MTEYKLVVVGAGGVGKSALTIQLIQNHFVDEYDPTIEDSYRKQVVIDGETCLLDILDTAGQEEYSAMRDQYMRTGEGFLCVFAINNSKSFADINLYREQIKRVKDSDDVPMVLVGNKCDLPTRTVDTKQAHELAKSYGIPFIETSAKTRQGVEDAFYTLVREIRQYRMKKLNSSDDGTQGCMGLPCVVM
How it was run: as §1

[4] = ratio of KD for HRAS wild-type protein to KD for KRAS
[5] = ratio of KD for GDP-bound NRAS wild-type protein to KD for KRAS
[6] = ratio of the KD value with respect to HRAS wild-type protein to the KD value with respect to KRAS
[7] = Single Cycle Kinetics, 1:1 binding model
[8] = ratio of the KD value with respect to GDP-bound NRAS wild-type protein to the KD value with respect to KRAS
[9] = ratio of KD value for HRAS wild-type protein to KD value for KRAS (SPR)
[10] = ratio of KD value for GDP-bound NRAS wild-type protein to KD value for KRAS (SPR)

Row | SMILES | IC50 [1] [nM] | HRAS /KRAS (HRAS wild-type protein; [4]) | Kd ([2]; 1:1 binding model) [nM] | NRAS /KRAS [3, 5] | HRAS /KRAS (HRAS wild-type protein; [6]) | Kd [2, 7] [nM] | NRAS /KRAS [3, 8] | Kd ([2]; Single Cycle Kinetics) [nM] | HRAS /KRAS (HRAS wild-type protein; [9]) | NRAS /KRAS [3, 10]
1 | CC[C@H](C)[C@@H]1NC(=O)[C@H](CC(C)C)N(C)C(=O)C[C@@H](C(=O)N2CCOCC2)N(C)C(=O)[C@H](C2CCCC2)N(C)C(=O)C(C)(C)NC(=O)[C@@H]2CCCN2C(=O)[C@H](CCc2ccc(C(F)(F)F)c(Cl)c2)NC(=O)CN(C)C(=O)[C@H](Cc2ccc(C(F)(F)F)cc2)N(CC)C(=O)CN(C)C(=O)CN(C)C1=O [PP0235] ([NMeL]I[Sar][Sar][NEtPhe(4-CF3)][Sar][hPhe(3-Cl-4-CF3)]P[Aib][NMeGly(cPent)][NMeD]-Morpholide; lactam N-11) | 4.5 | C (A compound having a KD ratio of 0.1 or more and less than 3 is denoted as C) | 0.15 | B (a compound having 3 or more and less than 10 is denoted as B) | – | – | – | – | – | –
2 | CCC[C@H]1C(=O)N[C@@H]([C@@H](C)CC)C(=O)N(C)CC(=O)N(C)[C@H]2C/C=C\CCN(C2=O)[C@@H](Cc2ccc(C)cc2)C(=O)N(C)CC(=O)N[C@@H](CCc2cc(F)c(C(F)(F)F)c(F)c2)C(=O)N2C[C@H](CC)C[C@H]2C(=O)NC2(CCCC2)C(=O)N(C)[C@@H](C2CCCC2)C(=O)N(C)[C@H](C(=O)N(C)C)CC(=O)N1C [PP2216] | 50.8 | – | – | – | A (a compound having 10 or more and less than 20 is denoted as A) | 0.23 | A (a compound having 10 or more and less than 20 is denoted as A) | – | – | –
3 | CCC[C@H]1C(=O)N[C@@H]([C@@H](C)CC)C(=O)N(C)CC(=O)N(C)[C@H]2C/C=C\CCN(C2=O)[C@@H](Cc2ccc(C(F)(F)F)cc2)C(=O)N(C)CC(=O)N[C@@H](CCc2ccc3c(C)c(C)n(C)c3c2)C(=O)N2C[C@H](OCC)C[C@H]2C(=O)NC2(CC(C)(C)C2)C(=O)N(C)[C@@H](C(CC)CC)C(=O)N(C)[C@H](C(=O)N(C)C)CC(=O)N1C [PP2904] | 82.4 | A (a compound having 10 or more and less than 20 is denoted as A) | 3.8 | AA (a compound having 20 or more is denoted as AA) | – | – | – | – | – | –
4 | CCO[C@@H]1C[C@H]2C(=O)NC3(CCC3)C(=O)N(C)[C@@H](C3CCCC3)C(=O)N(C)[C@H](C(=O)N3CCOCC3)CC(=O)N(C)[C@@H](Cc3cccc(F)c3)C(=O)N[C@@H]([C@@H](C)CC)C(=O)N(C)CC(=O)N(C)[C@H]3CCCCCN(C3=O)[C@@H](Cc3ccc(C(F)(F)F)cc3)C(=O)N(C)CC(=O)N[C@@H](CCc3cc(F)c(C(F)(F)F)c(F)c3)C(=O)N2C1 [PP0856] | 66.7 | B (a compound having 3 or more and less than 10 is denoted as B) | – | B (a compound having 3 or more and less than 10 is denoted as B) | – | – | – | 0.96 | – | –
5 | CCO[C@@H]1C[C@H]2C(=O)N(C)C3(CC(C)(C)C3)C(=O)N(C)[C@@H](C3CCCC3)C(=O)N(C)[C@H](C(=O)N(C)C)CC(=O)N(C)[C@H]3CCCCCc4ccc(cc4)C[C@@H](C(=O)N(C)CC(=O)N[C@@H](CCc4ccc(C(F)(F)F)c(OC)c4)C(=O)N2C1)N1CC/C=C\C[C@@H](C1=O)N(C)C(=O)CN(C)C(=O)[C@H]([C@@H](C)CC)NC3=O [PP3091] | 1.2 | B (a compound having 3 or more and less than 10 is denoted as B) | 0.031 | A (a compound having 10 or more and less than 20 is denoted as A) | – | – | – | – | – | –
6 | CCCN1C(=O)CN(C)C(=O)[C@@H]2CCN2C(=O)[C@H]([C@@H](C)CC)NC(=O)[C@H](CC(C)C)N(C)C(=O)C[C@@H](C(=O)N(C)C)N(C)C(=O)[C@H](C2CCCC2)N(C)C(=O)C2(CCC2)NC(=O)[C@@H]2CC(F)(F)CN2C(=O)[C@H](CCc2ccc(C(F)(F)F)c(Cl)c2)NC(=O)CN(C)C(=O)[C@@H]1Cc1ccc(C(F)(F)F)cc1 [PP0432] ([NMeL]I[Aze][Sar][NPrPhe(4-CF3)][Sar][hPhe(3-Cl-4-CF3)][Pro(4,4-F2)][Ac4c][NMeGly(cPent)][NMeD]-NMe2; lactam N-11) | 10.7 | – | – | – | B (a compound having 3 or more and less than 10 is denoted as B) | 0.17 | B (a compound having 3 or more and less than 10 is denoted as B) | – | – | –
7 | CCCN1C(=O)CN(CC)C(=O)CN(C)C(=O)[C@H]([C@@H](C)CC)NC(=O)[C@H](CC(C)C)N(C)C(=O)C[C@@H](C(=O)N2CCOCC2)N(C)C(=O)[C@H](C2CCCC2)N(C)C(=O)C2(CCC2)NC(=O)[C@@H]2CCCN2C(=O)[C@H](CCc2ccc(C(F)(F)F)c(Cl)c2)NC(=O)CN(C)C(=O)[C@@H]1Cc1ccc(C(F)(F)F)cc1 [PP1948] ([NMeL]I[Sar][NEtG][NPrPhe(4-CF3)][Sar][hPhe(3-Cl-4-CF3)]P[Ac4c][NMeGly(cPent)][NMeD]-Morpholide; lactam N-11) | 16.2 | – | – | – | C (A compound having a KD ratio of 0.1 or more and less than 3 is denoted as C) | 0.41 | C (A compound having a KD ratio of 0.1 or more and less than 3 is denoted as C) | – | – | –
8 | CC[C@H](C)[C@@H]1NC(=O)[C@H](CC(C)C)N(C)C(=O)C[C@@H](C(=O)N2CCOCC2)N(C)C(=O)[C@H](C2CCCC2)N(C)C(=O)C2(CCCC2)NC(=O)[C@@H]2CCCN2C(=O)[C@H](CCc2ccc(C(F)(F)F)c(Cl)c2)NC(=O)CN(C)C(=O)[C@H](Cc2ccc(Cl)cc2)N2CCCC[C@@H](C2=O)N(C)C(=O)CN(C)C1=O [PP0532] | 6.9 | – | – | – | B (a compound having 3 or more and less than 10 is denoted as B) | 0.066 | C (A compound having a KD ratio of 0.1 or more and less than 3 is denoted as C) | – | – | –
9 | CCO[C@@H]1C[C@H]2C(=O)NC3(CCC3)C(=O)N(C)[C@@H](C(CC)CC)C(=O)N(C)[C@H](C3CCC3)CC(=O)N(C)[C@@H](CC3CC3)C(=O)N[C@@H]([C@@H](C)CC)C(=O)N(C)CC(=O)N(C)[C@H]3C/C=C\CCN(C3=O)[C@@H](Cc3ccc(C(F)(F)F)cc3)C(=O)N(C)CC(=O)N[C@@H](CCc3cc(F)c(C(F)(F)F)c(F)c3)C(=O)N2C1 [PP1636] | 95.2 | – | – | – | – | 2.8 | – | – | A (a compound having 10 or more and less than 20 is denoted as A) | A (a compound having 10 or more and less than 20 is denoted as A)
10 | CCCN1C(=O)[C@@H]2CCN2C(=O)[C@H](Cc2ccccc2)N(C)C(=O)[C@H]([C@@H](C)CC)NC(=O)[C@H](CC(C)C)N(C)C(=O)C[C@@H](C(=O)N2CCOCC2)N(C)C(=O)[C@H](C2CCCC2)N(C)C(=O)C2(CCCC2)NC(=O)[C@@H]2CCCN2C(=O)[C@H](CCc2ccc(C(F)(F)F)c(Cl)c2)NC(=O)CN(C)C(=O)[C@@H]1Cc1ccc(C(F)(F)F)cc1 [PP0209] ([NMeL]I[NMeF][Aze][NPrPhe(4-CF3)][Sar][hPhe(3-Cl-4-CF3)]P[Ac5c][NMeGly(cPent)][NMeD]-Morpholide; lactam N-11) | 569 | C (A compound having a KD ratio of 0.1 or more and less than 3 is denoted as C) | 110 | C (A compound having a KD ratio of 0.1 or more and less than 3 is denoted as C) | – | – | – | – | – | –
11 | CCCN1C(=O)C[C@@H](C(=O)N(C)C)N(C)C(=O)[C@H](C2CCCC2)N(C)C(=O)C2(CCC2)NC(=O)[C@@H]2C[C@@H](OCC)CN2C(=O)[C@H](CCc2cc(F)c(C(F)(F)F)c(F)c2)NC(=O)CN(C)C(=O)[C@H](Cc2ccc(C(F)(F)F)cc2)N2CC/C=C\C[C@@H](C2=O)N(C)C(=O)CN(C)C(=O)[C@H]([C@@H](C)CC)NC(=O)[C@@H]1CC(C)C [PP1825] | 8 | – | – | – | – | 0.14 | – | – | A (a compound having 10 or more and less than 20 is denoted as A) | A (a compound having 10 or more and less than 20 is denoted as A)
